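Exposure lasted 48 hours, with cells grown in 96-well plates and compounds tested at five concentrations. At the GI50, growth is halved.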 The source made the active and inactive calls. Cut-off read from the data, not from the text of the source: active = GI50 up to about 1.1 µM and inactive = higher.
What was measured:
Assay in all cases: NCI anticancer screen, dose series, 48 h
786-0 = tested on: 786-0
A498 = tested on: A498
A549 = tested on: A549
ACHN = tested on: ACHN
CAKI-1 = tested on: CAKI-1
CCRF-CEM = tested on: CCRF-CEM
COLO 205 = tested on: COLO 205
DLD-1 = tested on: DLD-1
DMS-114 = tested on: DMS-114
DMS-273 = tested on: DMS-273
EKVX = tested on: EKVX
HCC 2998 = tested on: HCC 2998
HCT-15 = tested on: HCT-15
HL-60 = tested on: HL-60
HOP-18 = tested on: HOP-18
HOP-62 = tested on: HOP-62
HOP-92 = tested on: HOP-92
HT-29 = tested on: HT-29
IGROV-1 = tested on: IGROV-1
K562 = tested on: K562
KM12 = tested on: KM12
LXFL 529 = tested on: LXFL 529
M14 = tested on: M14
M19-MEL = tested on: M19-MEL
MOLT-4 = tested on: MOLT-4
Malme-3M = tested on: Malme-3M
NCI-H226 = tested on: NCI-H226
NCI-H23 = tested on: NCI-H23
NCI-H460 = tested on: NCI-H460
OVCAR-3 = tested on: OVCAR-3
OVCAR-4 = tested on: OVCAR-4
OVCAR-5 = tested on: OVCAR-5
OVCAR-8 = tested on: OVCAR-8
RPMI-8226 = tested on: RPMI-8226
RXF 631 = tested on: RXF 631
SF-268 = tested on: SF-268
SF-295 = tested on: SF-295
SF-539 = tested on: SF-539
SK-MEL-28 = tested on: SK-MEL-28
SK-MEL-2 = tested on: SK-MEL-2
SK-OV-3 = tested on: SK-OV-3
SN12C = tested on: SN12C
SNB-75 = tested on: SNB-75
SNB-78 = tested on: SNB-78
SW-620 = tested on: SW-620
TK-10 = tested on: TK-10
U-251 = tested on: U-251
UACC-62 = tested on: UACC-62
UO-31 = tested on: UO-31
XF498 = tested on: XF498
BT-549 = tested on: BT-549
DU-145 = tested on: DU-145
HCT-116 = tested on: HCT-116
Hs-578T = tested on: Hs-578T
KM-20L2 = tested on: KM-20L2
LOX IMVI = tested on: LOX IMVI
MCF7 = tested on: MCF7
MDA-MB-435 = tested on: MDA-MB-435
MDA-N = tested on: MDA-N
NCI-H522 = tested on: NCI-H522
PC-3 = tested on: PC-3
RXF 393 = tested on: RXF 393
SK-MEL-5 = tested on: SK-MEL-5
SNB-19 = tested on: SNB-19
SR = tested on: SR
T47D = tested on: T47D
UACC-257 = tested on: UACC-257

O=C1c2ccccc2C(=O)c2c(O)c(NCCCNCCO)cc(O)c21
GI50 (786-0): 10.5 µM (inactive)
GI50 (A498): 14.8 µM (inactive)
GI50 (A549): 10.3 µM (inactive)
GI50 (ACHN): 3.82 µM (inactive)
GI50 (CAKI-1): 10.2 µM (inactive)
GI50 (CCRF-CEM): 2.47 µM (inactive)
GI50 (COLO 205): 5.92 µM (inactive)
GI50 (DLD-1): 6.49 µM (inactive)
GI50 (DMS-114): 11 µM (inactive)
GI50 (DMS-273): 4.97 µM (inactive)
GI50 (EKVX): 13.7 µM (inactive)
GI50 (HCC 2998): 3.06 µM (inactive)
GI50 (HCT-15): 5.83 µM
GI50 (HL-60): 4.18 µM (inactive)
GI50 (HOP-18): 2.41 µM (inactive)
GI50 (HOP-62): 2.44 µM (inactive)
GI50 (HOP-92): 12.4 µM (inactive)
GI50 (HT-29): 4.16 µM (inactive)
GI50 (IGROV-1): 12.4 µM (inactive)
GI50 (K562): 1.66 µM (inactive)
GI50 (KM12): 0.729 µM (active)
GI50 (LXFL 529): 11.1 µM (inactive)
GI50 (M14): 16.7 µM (inactive)
GI50 (M19-MEL): 13.7 µM (inactive)
GI50 (MOLT-4): 2.74 µM (inactive)
GI50 (Malme-3M): 17.1 µM (inactive)
GI50 (NCI-H226): 5.61 µM (inactive)
GI50 (NCI-H23): 9.18 µM (inactive)
GI50 (NCI-H460): 3.33 µM (inactive)
GI50 (OVCAR-3): 12.1 µM (inactive)
GI50 (OVCAR-4): 10.2 µM (inactive)
GI50 (OVCAR-5): 11.3 µM (inactive)
GI50 (OVCAR-8): 5.79 µM (inactive)
GI50 (RPMI-8226): 7.59 µM (inactive)
GI50 (RXF 631): 6.34 µM (inactive)
GI50 (SF-268): 7.91 µM (inactive)
GI50 (SF-295): 10.7 µM (inactive)
GI50 (SF-539): 9.38 µM (inactive)
GI50 (SK-MEL-28): 16.2 µM (inactive)
GI50 (SK-MEL-2): 18 µM (inactive)
GI50 (SK-OV-3): 12.4 µM (inactive)
GI50 (SN12C): 10.5 µM (inactive)
GI50 (SNB-75): 12.9 µM (inactive)
GI50 (SNB-78): 11.2 µM (inactive)
GI50 (SW-620): 4.33 µM (inactive)
GI50 (TK-10): 8.83 µM (inactive)
GI50 (U-251): 6.15 µM (inactive)
GI50 (UACC-62): 18.7 µM (inactive)
GI50 (UO-31): 5.87 µM (inactive)
GI50 (XF498): 16 µM (inactive)

CC1(C)C(=O)/C=C\C(=O)C(C)(C)C(=O)/C=C\C(=O)C(C)(C)C2=CC=C(O2)C(C)(C)C(=O)/C=C\C1=O
GI50 (786-0): 2.24 µM (inactive)
GI50 (A498): 16.8 µM (inactive)
GI50 (A549): 21.1 µM (inactive)
GI50 (ACHN): 3.63 µM (inactive)
GI50 (BT-549): 11.9 µM (inactive)
GI50 (CAKI-1): 3.84 µM (inactive)
GI50 (CCRF-CEM): 0.368 µM (active)
GI50 (COLO 205): 2.29 µM (inactive)
GI50 (DLD-1): 1.72 µM (inactive)
GI50 (DMS-114): 8.26 µM (inactive)
GI50 (DMS-273): 2.94 µM (inactive)
GI50 (DU-145): 17.9 µM (inactive)
GI50 (EKVX): 5.21 µM (inactive)
GI50 (HCC 2998): 11.7 µM (inactive)
GI50 (HCT-116): 2.08 µM (inactive)
GI50 (HCT-15): 3.7 µM
GI50 (HL-60): 0.684 µM (active)
GI50 (HOP-18): 22.5 µM (inactive)
GI50 (HOP-62): 24.3 µM (inactive)
GI50 (HOP-92): 1.8 µM (inactive)
GI50 (HT-29): 2.89 µM (inactive)
GI50 (Hs-578T): 16.9 µM (inactive)
GI50 (IGROV-1): 9.18 µM (inactive)
GI50 (K562): 1.63 µM (inactive)
GI50 (KM-20L2): 13.9 µM (inactive)
GI50 (KM12): 12.7 µM (inactive)
GI50 (LOX IMVI): 5.14 µM (inactive)
GI50 (LXFL 529): 2.4 µM (inactive)
GI50 (M14): 2.21 µM (inactive)
GI50 (M19-MEL): 5.86 µM (inactive)
GI50 (MCF7): 10.6 µM (inactive)
GI50 (MDA-MB-435): 15.7 µM (inactive)
GI50 (MDA-N): 5.01 µM (inactive)
GI50 (MOLT-4): 1.27 µM (inactive)
GI50 (Malme-3M): 1.91 µM (inactive)
GI50 (NCI-H226): 13.6 µM (inactive)
GI50 (NCI-H23): 5.55 µM (inactive)
GI50 (NCI-H460): 20.5 µM (inactive)
GI50 (NCI-H522): 1.44 µM (inactive)
GI50 (OVCAR-3): 3.27 µM (inactive)
GI50 (OVCAR-4): 6.61 µM (inactive)
GI50 (OVCAR-5): 20.8 µM (inactive)
GI50 (OVCAR-8): 4.44 µM (inactive)
GI50 (PC-3): 15.8 µM (inactive)
GI50 (RPMI-8226): 0.789 µM (active)
GI50 (RXF 393): 2 µM (inactive)
GI50 (RXF 631): 7.82 µM (inactive)
GI50 (SF-268): 16.6 µM (inactive)
GI50 (SF-295): 17.3 µM (inactive)
GI50 (SF-539): 9.62 µM (inactive)
GI50 (SK-MEL-28): 4.99 µM (inactive)
GI50 (SK-MEL-2): 12.1 µM (inactive)
GI50 (SK-MEL-5): 7.85 µM (inactive)
GI50 (SK-OV-3): 15.9 µM (inactive)
GI50 (SN12C): 5.48 µM (inactive)
GI50 (SNB-19): 16.7 µM (inactive)
GI50 (SNB-78): 3.71 µM (inactive)
GI50 (SR): 1.22 µM (inactive)
GI50 (SW-620): 1.66 µM (inactive)
GI50 (T47D): 0.0775 µM (active)
GI50 (TK-10): 7.6 µM (inactive)
GI50 (U-251): 15.7 µM (inactive)
GI50 (UACC-257): 5.71 µM (inactive)
GI50 (UACC-62): 5.07 µM (inactive)
GI50 (UO-31): 14.5 µM (inactive)
GI50 (XF498): 1.88 µM (inactive)
